Holding throughout (type): binding
Experiment [1] deals with T1, JAK1 (Homo sapiens, UniProt P23458).
T1 construct: endogenous in cells; host or cells: Molt4 (ATCC CRL-1582) and Ramos (ATCC CRL-1596), mixed lysate 1:2
As to the kind of experiment: Kinobeads assay, JAK1. The settings on record: mixed Molt4/Ramos lysate, read-out: Inhibition values (IC50) JAK1. An outline of the steps:
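Competitive pulldown in combined Molt4 and Ramos lysates (1 vs 2 volumes): compound, as a nine-point 1:3 series, and kinobeads were shaken together for 3 hours in a cold room. Captured JAK1 was quantified on an infrared-read antibody dot blot and IC50 calculated. Controls held 2% DMSO without compound.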

Experiment [2] has as its target T2, JAK2 (Homo sapiens, UniProt O60674).
T2 construct: endogenous in cells; host or cells: Molt4 (ATCC CRL-1582) and Ramos (ATCC CRL-1596), mixed lysate 1:2
As to the kind of experiment: Kinobeads assay, JAK2. The conditions noted are these: mixed Molt4/Ramos lysate, read-out: Inhibition values (IC50) JAK2. An outline of the steps: (§1)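 IC50s come from capture competition: compound at various concentrations versus an immobilized aminopyrido-pyrimidine ligand for kinases in 1:2 Molt4/Ramos lysate (10 mg/mL), 3 h in a cold room. Captured JAK-family kinases were measured by specific-antibody dot blot with Odyssey infrared detection.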

Experiment [3] addresses T3, TYK2 (Homo sapiens, UniProt P29597).
T3 construct: endogenous in cells; host or cells: Molt4 (ATCC CRL-1582) and Ramos (ATCC CRL-1596), mixed lysate 1:2
The experiment can be described thus: Kinobeads assay, TYK2. The settings on record: mixed Molt4/Ramos lysate, read-out: Inhibition values (IC50) TYK2. An outline of the steps:
as §1

Broadly, the IC50 is the concentration at which inhibition is half-maximal.

T3 sequence (P29597 whole entry): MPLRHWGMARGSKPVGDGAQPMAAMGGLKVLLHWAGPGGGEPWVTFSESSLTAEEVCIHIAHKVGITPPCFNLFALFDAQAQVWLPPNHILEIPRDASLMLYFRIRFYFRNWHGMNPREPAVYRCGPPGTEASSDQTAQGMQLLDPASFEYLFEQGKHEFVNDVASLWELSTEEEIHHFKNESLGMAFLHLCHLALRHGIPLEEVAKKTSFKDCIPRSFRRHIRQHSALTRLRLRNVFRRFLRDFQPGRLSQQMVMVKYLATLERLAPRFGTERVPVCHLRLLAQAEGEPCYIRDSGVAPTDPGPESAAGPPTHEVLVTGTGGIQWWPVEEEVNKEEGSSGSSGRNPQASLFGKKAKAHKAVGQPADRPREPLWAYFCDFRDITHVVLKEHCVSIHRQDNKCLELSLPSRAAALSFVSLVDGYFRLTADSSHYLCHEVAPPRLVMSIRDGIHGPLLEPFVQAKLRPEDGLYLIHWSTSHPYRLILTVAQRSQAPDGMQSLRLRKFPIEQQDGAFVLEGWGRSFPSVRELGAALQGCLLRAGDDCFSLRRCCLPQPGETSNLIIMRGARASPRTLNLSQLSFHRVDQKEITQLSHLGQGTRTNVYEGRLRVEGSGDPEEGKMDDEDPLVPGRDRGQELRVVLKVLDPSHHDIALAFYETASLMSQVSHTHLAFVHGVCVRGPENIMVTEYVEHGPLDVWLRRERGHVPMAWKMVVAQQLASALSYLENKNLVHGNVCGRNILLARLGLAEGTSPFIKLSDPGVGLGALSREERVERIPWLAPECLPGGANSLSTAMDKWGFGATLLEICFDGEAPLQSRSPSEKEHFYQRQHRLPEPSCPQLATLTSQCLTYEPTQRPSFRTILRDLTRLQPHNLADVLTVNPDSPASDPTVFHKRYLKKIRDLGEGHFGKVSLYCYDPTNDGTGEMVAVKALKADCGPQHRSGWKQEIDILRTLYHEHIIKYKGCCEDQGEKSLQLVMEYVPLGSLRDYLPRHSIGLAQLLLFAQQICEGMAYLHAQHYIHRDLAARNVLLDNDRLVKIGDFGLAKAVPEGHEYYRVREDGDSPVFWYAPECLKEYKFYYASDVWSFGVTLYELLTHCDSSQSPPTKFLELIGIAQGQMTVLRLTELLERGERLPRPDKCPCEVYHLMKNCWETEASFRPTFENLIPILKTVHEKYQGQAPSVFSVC
T2 sequence (O60674 whole entry): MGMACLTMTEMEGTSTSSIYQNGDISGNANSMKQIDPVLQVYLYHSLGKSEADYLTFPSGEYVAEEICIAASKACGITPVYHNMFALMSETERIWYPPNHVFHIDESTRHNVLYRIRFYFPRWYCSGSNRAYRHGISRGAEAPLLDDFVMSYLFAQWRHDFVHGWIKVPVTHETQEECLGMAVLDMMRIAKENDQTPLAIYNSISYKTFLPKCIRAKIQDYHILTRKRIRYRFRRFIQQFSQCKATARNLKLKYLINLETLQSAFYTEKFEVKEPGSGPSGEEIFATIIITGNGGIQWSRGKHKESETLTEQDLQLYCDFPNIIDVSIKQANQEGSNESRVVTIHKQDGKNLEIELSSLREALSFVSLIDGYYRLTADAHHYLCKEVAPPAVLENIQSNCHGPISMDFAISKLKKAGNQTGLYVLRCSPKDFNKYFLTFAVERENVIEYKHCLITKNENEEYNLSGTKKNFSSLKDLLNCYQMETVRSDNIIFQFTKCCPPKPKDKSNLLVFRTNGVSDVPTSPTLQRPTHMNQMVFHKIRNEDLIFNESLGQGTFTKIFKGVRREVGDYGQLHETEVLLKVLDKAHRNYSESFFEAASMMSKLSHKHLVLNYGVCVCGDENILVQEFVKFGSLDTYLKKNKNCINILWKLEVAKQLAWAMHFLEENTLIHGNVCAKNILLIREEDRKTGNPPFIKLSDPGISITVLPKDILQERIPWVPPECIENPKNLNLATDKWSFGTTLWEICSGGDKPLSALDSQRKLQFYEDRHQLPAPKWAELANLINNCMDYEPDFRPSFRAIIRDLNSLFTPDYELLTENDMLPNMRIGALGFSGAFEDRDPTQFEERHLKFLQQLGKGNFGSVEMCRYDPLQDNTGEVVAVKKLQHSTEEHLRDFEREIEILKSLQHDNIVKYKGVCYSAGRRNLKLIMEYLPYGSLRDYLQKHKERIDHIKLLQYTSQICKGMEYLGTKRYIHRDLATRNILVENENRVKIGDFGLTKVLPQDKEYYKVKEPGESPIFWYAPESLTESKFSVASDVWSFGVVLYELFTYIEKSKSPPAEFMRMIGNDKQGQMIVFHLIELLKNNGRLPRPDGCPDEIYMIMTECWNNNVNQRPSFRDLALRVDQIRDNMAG
T1 sequence (P23458 whole entry): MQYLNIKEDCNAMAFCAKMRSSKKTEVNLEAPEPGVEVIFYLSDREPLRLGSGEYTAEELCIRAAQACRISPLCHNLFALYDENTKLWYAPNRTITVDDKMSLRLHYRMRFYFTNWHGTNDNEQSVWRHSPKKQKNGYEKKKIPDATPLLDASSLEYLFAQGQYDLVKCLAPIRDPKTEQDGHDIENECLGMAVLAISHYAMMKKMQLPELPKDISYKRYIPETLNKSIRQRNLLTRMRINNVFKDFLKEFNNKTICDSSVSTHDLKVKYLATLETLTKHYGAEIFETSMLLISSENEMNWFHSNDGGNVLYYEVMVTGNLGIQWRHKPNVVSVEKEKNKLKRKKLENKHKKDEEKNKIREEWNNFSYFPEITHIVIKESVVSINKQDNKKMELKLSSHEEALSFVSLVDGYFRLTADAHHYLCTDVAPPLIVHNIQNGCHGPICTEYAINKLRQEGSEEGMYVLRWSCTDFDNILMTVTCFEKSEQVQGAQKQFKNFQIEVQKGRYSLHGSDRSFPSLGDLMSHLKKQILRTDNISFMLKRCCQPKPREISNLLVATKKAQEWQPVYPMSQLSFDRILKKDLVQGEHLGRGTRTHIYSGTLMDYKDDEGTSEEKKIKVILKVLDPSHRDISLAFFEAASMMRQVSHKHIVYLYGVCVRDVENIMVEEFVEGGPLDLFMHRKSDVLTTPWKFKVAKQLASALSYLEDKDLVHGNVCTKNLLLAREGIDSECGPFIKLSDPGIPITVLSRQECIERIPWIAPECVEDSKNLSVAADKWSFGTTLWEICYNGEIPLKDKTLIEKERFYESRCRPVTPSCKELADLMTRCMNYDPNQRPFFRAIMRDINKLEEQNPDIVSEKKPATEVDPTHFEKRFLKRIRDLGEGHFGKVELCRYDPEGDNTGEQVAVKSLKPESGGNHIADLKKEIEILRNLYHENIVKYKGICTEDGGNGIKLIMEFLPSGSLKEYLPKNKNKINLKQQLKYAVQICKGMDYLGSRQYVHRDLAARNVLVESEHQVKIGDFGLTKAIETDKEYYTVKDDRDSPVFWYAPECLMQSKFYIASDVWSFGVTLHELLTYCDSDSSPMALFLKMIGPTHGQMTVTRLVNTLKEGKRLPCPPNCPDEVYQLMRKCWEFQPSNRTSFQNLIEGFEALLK

As for `O=C(Cn1cc(Nc2ncc(Cl)c(N[C@H](CO)c3ccccc3)n2)cn1)NC1CC1` [Compound 68], the figures for the half-inhibitory concentration (IC50) in experiment [1], in experiment [2] and in experiment [3] were 100 to 1000 nM, 1000 to 10000 nM and 100 to 1000 nM, respectively.
For the compound `O=C([C@@H](Nc1nc(Nc2cnn(CCO)c2)ncc1Cl)c1ccccc1)N1CCCC1` [Compound 35], the IC50 in experiment [1], in experiment [2] and in experiment [3] was 1000 to 10000 nM each time.
With `COC(=O)C(Nc1nc(Nc2cnn(CCO)c2)ncc1Cl)c1ccccc1` (stereo not drawn) [Compound 15], the concentration for half-maximal inhibition (IC50) in experiment [1] was 1000 to 10000 nM; in experiment [2], not below 10000 nM; in experiment [3], 1000 to 10000 nM.
In the case of `OCCn1ccc(Nc2ncc(Cl)c(NC(CO)c3c(F)cccc3F)n2)n1` (stereo not drawn) [Compound 45], the 50% inhibitory concentration (IC50) in experiment [1] was more than 10000 nM; in experiment [2] it was not below 10000 nM; in experiment [3], 1000 to 10000 nM.
Regarding `CNC(=O)Cn1cc(Nc2ncc(Cl)c(NC(CO)c3c(F)cccc3F)n2)cn1` (stereo not drawn) [Compound 31], the IC50 in experiment [1], in experiment [2] and in experiment [3] was 1000 to 10000 nM throughout.
With `Cc1cnc(Nc2cnn(CC(=O)N3CCOCC3)c2)nc1NC(CO)c1c(F)cccc1F` (stereo not drawn) [Compound 169], the half-maximal inhibitory concentration (IC50) in experiment [1] was 1000 to 10000 nM; in experiment [2], 1000 to 10000 nM; in experiment [3], 100 to 1000 nM.
For the compound `COc1ccccc1[C@@H](CO)Nc1nc(Nc2cnn(C)c2)ncc1Cl` [Compound 74], the IC50 in experiment [1] lay in the range of 100 to 1000 nM; in experiment [2], 1000 to 10000 nM; in experiment [3] it was 1000 to 10000 nM.
As for `OCCCn1cc(Nc2ncc(Cl)c(NC(CO)c3ccccc3F)n2)cn1` (stereo not drawn) [Compound 64], the IC50 in experiment [1], in experiment [2] and in experiment [3] was 1000 to 10000 nM in each case.
In the case of `Cn1cc(Nc2ncc(Cl)c(NC(CO)c3cccc(F)c3)n2)cn1` (stereo not drawn) [Compound 40], the IC50 in experiment [1], in experiment [2] and in experiment [3] was 1000 to 10000 nM in each case.
Turning to `CCOC(=O)Cn1cc(Nc2ncc(Cl)c(N[C@H](CO)c3ccccc3)n2)cn1` [Compound 22], the IC50 in experiment [1] is 100 to 1000 nM; in experiment [2], 1000 to 10000 nM; in experiment [3], 100 to 1000 nM.
Turning to `CC(C)(O)Cn1cc(Nc2ncc(Cl)c(NC(CO)c3ccccc3F)n2)cn1` (stereo not drawn) [Compound 57], the results for the IC50 in experiment [1], in experiment [2] and in experiment [3] were 1000 to 10000 nM, not below 10000 nM and 1000 to 10000 nM, respectively.
Consider `Cn1cc(Nc2ncc(Cl)c(N[C@H](CO)c3ccccc3F)n2)cn1` [Compound 58], for which the half-maximal inhibitory concentration (IC50) in experiment [1], in experiment [2] and in experiment [3] was 1000 to 10000 nM each time.
With `Cn1cc(Nc2ncc(Cl)c(N[C@@H](CO)c3ccccc3)n2)cn1` [Compound 54], the half-inhibitory concentration (IC50) in experiment [1] was more than 10000 nM; in experiment [2] it was not below 10000 nM; in experiment [3] it was 1000 to 10000 nM.
In the case of `COC[C@@H](Nc1nc(Nc2cnn(C)c2)ncc1Cl)c1ccccc1` [Compound 55], the IC50 in experiment [1] was more than 10000 nM; in experiment [2], not below 10000 nM; in experiment [3] it was not below 10000 nM.
With `Cn1cc(Nc2ncc(Cl)c(NC(CO)c3ccc(F)cc3)n2)cn1` (stereo not drawn) [Compound 71], the IC50 in experiment [1] is 1000 to 10000 nM; in experiment [2], not below 10000 nM; in experiment [3], 1000 to 10000 nM.
Turning to `CC(C)(C(N)=O)n1cc(Nc2ncc(Cl)c(N[C@H](CO)c3ccccc3F)n2)cn1` [Compound 73], the concentration for half-maximal inhibition (IC50) in experiment [1], in experiment [2] and in experiment [3] was 1000 to 10000 nM in each case.
Take `OCCn1cc(Nc2ncc(Cl)c(NC(CO)c3ccc(F)cc3)n2)cn1` (stereo not drawn) [Compound 72]: the results for the IC50 in experiment [1], in experiment [2] and in experiment [3] were 1000 to 10000 nM, not below 10000 nM and 1000 to 10000 nM, respectively.
As to `CN(C)C(=O)[C@@H](Nc1nc(Nc2cnn(CCO)c2)ncc1Cl)c1ccccc1` [Compound 26], the IC50 in experiment [1], in experiment [2] and in experiment [3] was 1000 to 10000 nM throughout.
On to `Cc1cnc(Nc2cnn(CC(F)F)c2)nc1N[C@H](CO)c1cc(F)cc(F)c1` [Compound 167], for which the IC50 in experiment [1], in experiment [2] and in experiment [3] was 1000 to 10000 nM each time.
Consider `COc1ccccc1[C@@H](CO)Nc1nc(Nc2cnn(CCO)c2)ncc1Cl` [Compound 76], for which the figures for the 50% inhibitory concentration (IC50) in experiment [1], in experiment [2] and in experiment [3] were 100 to 1000 nM, 1000 to 10000 nM and 100 to 1000 nM, respectively.
With `Cn1cc(Nc2ncc(Cl)c(N[C@H](C(=O)NC3CCCC3)c3ccccc3)n2)cn1` [Compound 59], the concentration for half-maximal inhibition (IC50) is more than 10000 nM in experiment [1], not below 10000 nM in experiment [2] and not below 10000 nM in experiment [3].
Consider `Cn1cc(Nc2ncc(Cl)c(N[C@H](C(=O)N3CCCCC3)c3ccccc3)n2)cn1` [Compound 49], for which the 50% inhibitory concentration (IC50) in experiment [1] was 1000 to 10000 nM; in experiment [2] it was not below 10000 nM; in experiment [3], not below 10000 nM.
Regarding `Cn1cc(Nc2ncc(Cl)c(N[C@H](C(=O)NCCO)c3ccccc3)n2)cn1` [Compound 46], the IC50 in experiment [1], in experiment [2] and in experiment [3] was 1000 to 10000 nM each time.
`NC(=O)Cn1cc(Nc2ncc(Cl)c(N[C@H](CO)c3ccccn3)n2)cn1` [Compound 81]: the concentration for half-maximal inhibition (IC50) in experiment [1] lay within 100 to 1000 nM; in experiment [2], 1000 to 10000 nM; in experiment [3] it was 100 to 1000 nM.
For the compound `OCCn1cc(Nc2ncc(Cl)c(NC(CO)Cc3ccccc3)n2)cn1` (stereo not drawn) [Compound 19], the IC50 fell in the range of 100 to 1000 nM in experiment [1], 1000 to 10000 nM in experiment [2] and 1000 to 10000 nM in experiment [3].
In the case of `OC[C@@H](Nc1nc(Nc2cn[nH]c2)ncc1Cl)c1ccccc1` [Compound 75], the 50% inhibitory concentration (IC50) in experiment [1], in experiment [2] and in experiment [3] was 1000 to 10000 nM each time.
Regarding `Cn1cc(Nc2ncc(Cl)c(N[C@H](C(=O)N3CCCC3)c3ccccc3)n2)cn1` [Compound 34], the half-inhibitory concentration (IC50) in experiment [1] was 1000 to 10000 nM; in experiment [2] it was 1000 to 10000 nM; in experiment [3], not below 10000 nM.
Take `OCCn1cc(Nc2ncc(Cl)c(NC(CO)c3c(F)cccc3F)n2)cn1` (stereo not drawn) [Compound 43]: the half-inhibitory concentration (IC50) in experiment [1] was in the range of 100 to 1000 nM; in experiment [2], 1000 to 10000 nM; in experiment [3] it was 100 to 1000 nM.
Consider `OCCn1ccc(Nc2ncc(Cl)c(NC(CO)c3cccc(F)c3)n2)n1` (stereo not drawn) [Compound 41], for which the half-inhibitory concentration (IC50) in experiment [1] was more than 10000 nM; in experiment [2], not below 10000 nM; in experiment [3], not below 10000 nM.
Turning to `Cn1cc(Nc2ncc(Cl)c(NC(CO)c3c(F)cccc3F)n2)cn1` (stereo not drawn) [Compound 44], the IC50 in experiment [1], in experiment [2] and in experiment [3] was 1000 to 10000 nM in each case.
Take `O=C(O)C(Nc1nc(Nc2cnn(CCO)c2)ncc1Cl)c1ccccc1` (stereo not drawn) [Compound 17]: the results for the IC50 in experiment [1], in experiment [2] and in experiment [3] were more than 10000 nM, not below 10000 nM and not below 10000 nM, respectively.
Turning to `NC(=O)Cn1cc(Nc2ncc(Cl)c(N[C@H](CO)c3ccccc3F)n2)cn1` [Compound 78], the IC50 is less than 100 nM in experiment [1], 1000 to 10000 nM in experiment [2] and 100 to 1000 nM in experiment [3].
Taken in the same sequence, the figures for `CNC(=O)Cn1cc(Nc2ncc(Cl)c(NC(CO)c3cccc(F)c3)n2)cn1` (stereo not drawn) [Compound 32] were 1000 to 10000 nM, 1000 to 10000 nM and 1000 to 10000 nM.
For `CC(C)(O)Cn1cc(Nc2ncc(Cl)c(NC(CO)c3cccc(F)c3)n2)cn1` (stereo not drawn) [Compound 61], in that order: 1000 to 10000 nM, 1000 to 10000 nM and 1000 to 10000 nM.
For `COCCNC(=O)[C@@H](Nc1nc(Nc2cnn(CCO)c2)ncc1Cl)c1ccccc1` [Compound 48], in that order: 100 to 1000 nM, 1000 to 10000 nM and 1000 to 10000 nM.

Source of the values: US20140179664A1, “Heterocyclyl Pyrimidine Analogues As JAK Inhibitors” (Cellzome Limited, priority 2011, published 2014).
